Source: ChEMBL document CHEMBL1944566, “Conjugation of cell-penetrating peptides leads to identification of anti-HIV peptides from matrix proteins” (Bioorg Med Chem, 2012)
Calls of active or inactive are those of the source. No cut-off for these calls is given here. Where a SMILES comes first, the peptide text is derived from it. The star is where a group is joined. Cam = NC(=O)C*

Assays:
[1] = Cytotoxicity against human MT4 cells after 5 days by MTT assay; assay type: cell-based
[2] = test system: Human immunodeficiency virus 1; assay: Antiviral activity against X4 tropic HIV1 NL4-3 in MT4 cells assessed as protection from virus-induced cytopathogenicity at 3.13 uM after 5 days by MTT assay; assay type: functional, organism-based
[3] = test system: Human immunodeficiency virus 1; assay: Antiviral activity against X4 tropic HIV1 NL4-3 in MT4 cells assessed as protection from virus-induced cytopathogenicity after 5 days by MTT assay; assay type: functional, organism-based; conditions: Human immunodeficiency virus 1, NL4-3, MT4, 120 h
[4] = test system: Human immunodeficiency virus 1; assay: Antiviral activity against R5 tropic HIV1 JR-CSF in PM1/CCR5 cells assessed as protection from virus-induced cytopathogenicity measuring capsid p24 level after 5 days by ELISA; assay type: functional, cell-based; conditions: Human immunodeficiency virus 1, JRCSF ISOLATE, PM1/CCR5, 120 h
[5] = Aqueous solubility of the compound; assay type: physicochemical; conditions: buffer
[6] = test system: Human immunodeficiency virus 1; assay: Antiviral activity against R5 tropic HIV1 NL(AD8) in PM1/CCR5 cells assessed as protection from virus-induced cytopathogenicity after 5 days by MTT assay; assay type: functional, organism-based; conditions: Human immunodeficiency virus 1, NL(AD8), PM1/CCR5, 120 h
[7] = test system: Human immunodeficiency virus 1; assay: Antiviral activity against R5 tropic HIV1 JR-CSF in PM1/CCR5 cells assessed as protection from virus-induced cytopathogenicity measuring capsid p24 level at 50 uM after 5 days by ELISA; assay type: functional; conditions: Human immunodeficiency virus 1, JRCSF ISOLATE, PM1/CCR5, 120 h
[8] = test system: Human immunodeficiency virus 1; assay: Antiviral activity against R5 tropic HIV1 NL(AD8) in PM1/CCR5 cells assessed as protection from virus-induced cytopathogenicity at 50 uM after 5 days by MTT assay; assay type: functional; conditions: Human immunodeficiency virus 1, NL(AD8), PM1/CCR5, 120 h
[9] = test system: Human immunodeficiency virus 1; assay: Antiviral activity against R5 tropic HIV1 NL(AD8) in PM1/CCR5 cells assessed as protection from virus-induced cytopathogenicity at 6.25 uM after 5 days by MTT assay; assay type: functional; conditions: Human immunodeficiency virus 1, NL(AD8), PM1/CCR5, 120 h
[10] = test system: Human immunodeficiency virus 1; assay: Antiviral activity against R5 tropic HIV1 NL(AD8) in PM1/CCR5 cells assessed as protection from virus-induced cytopathogenicity at 25 uM after 5 days by MTT assay; assay type: functional; conditions: Human immunodeficiency virus 1, NL(AD8), PM1/CCR5, 120 h

| Structure (SMILES) | CC50 at 120 h [1] | inhibition [2] | EC50 [3] | EC50 [4] | solubility [5] | EC50 [6] | inhibition at 50 µM [7] | inhibition at 50 µM [8] | inhibition at 6.25 µM [9] | inhibition at 25 µM [10] |
| --- | --- | --- | --- | --- | --- | --- | --- | --- | --- | --- |
| CC[C@H](C)[C@H](NC(=O)[C@H](Cc1cnc[nH]1)NC(=O)[C@H](CCCCN)NC(=O)[C@H](CC(C)C)NC(C)=O)C(=O)N[C@H](C(=O)N[C@@H](Cc1c[nH]c2ccccc12)C(=O)N[C@@H](C)C(=O)N[C@@H](CO)C(=O)N[C@@H](CCCNC(=N)N)C(=O)N[C@@H](CCC(=O)O)C(=O)N[C@@H](CC(C)C)C(=O)N[C@@H](CCC(=O)O)C(=O)N[C@@H](CCCNC(=N)N)C(=O)N[C@@H](Cc1ccccc1)C(=O)N[C@@H](C)C(=O)NCC(=O)N[C@@H](CSCC(=O)N[C@@H](CCCNC(=N)N)C(=O)N[C@@H](CCCNC(=N)N)C(=O)N[C@@H](CCCNC(=N)N)C(=O)N[C@@H](CCCNC(=N)N)C(=O)N[C@@H](CCCNC(=N)N)C(=O)N[C@@H](CCCNC(=N)N)C(=O)N[C@@H](CCCNC(=N)N)C(=O)N[C@@H](CCCNC(=N)N)C(N)=O)C(N)=O)C(C)C | 3.7 µM | inactive |  |  |  |  |  |  |  |  |
| CC[C@H](C)[C@H](NC(=O)[C@H](CCCNC(=N)N)NC(=O)[C@H](CCC(N)=O)NC(=O)[C@H](Cc1cnc[nH]1)NC(=O)[C@@H](NC(=O)[C@H](CO)NC(=O)[C@H](Cc1ccc(O)cc1)NC(=O)[C@H](CC(C)C)NC(=O)[C@@H](NC(=O)[C@H](C)NC(=O)[C@@H](NC(=O)[C@@H](NC(C)=O)[C@@H](C)O)[C@@H](C)CC)C(C)C)C(C)C)C(=O)N[C@@H](CC(=O)O)C(=O)N[C@H](C(=O)N[C@@H](CCCCN)C(=O)NCC(=O)N[C@@H](CSCC(N)=O)C(N)=O)C(C)C (Ac-TIAVLYSVHQRIDVKGC(Cam)-NH2) | > 50 µM |  | 29 µM | 8.1 µM | Insoluble | 13 µM |  |  |  |  |
| CC(=O)N[C@@H](CC(C)C)C(=O)NCC(=O)N[C@@H](CCC(N)=O)C(=O)N[C@@H](CC(C)C)C(=O)N[C@@H](CCC(N)=O)C(=O)N1CCC[C@H]1C(=O)N[C@@H](CO)C(=O)N[C@@H](CC(C)C)C(=O)N[C@@H](CCC(N)=O)C(=O)N[C@H](C(=O)NCC(=O)N[C@@H](CO)C(=O)N[C@@H](CCC(=O)O)C(=O)N[C@@H](CCC(=O)O)C(=O)N[C@@H](CC(C)C)C(=O)NCC(=O)N[C@@H](CSCC(=O)N[C@@H](CCCNC(=N)N)C(=O)N[C@@H](CCCNC(=N)N)C(=O)N[C@@H](CCCNC(=N)N)C(=O)N[C@@H](CCCNC(=N)N)C(=O)N[C@@H](CCCNC(=N)N)C(=O)N[C@@H](CCCNC(=N)N)C(=O)N[C@@H](CCCNC(=N)N)C(=O)N[C@@H](CCCNC(=N)N)C(N)=O)C(N)=O)[C@@H](C)O | > 50 µM |  | 35 µM |  |  |  | 35% | 37% |  |  |
| CC[C@H](C)[C@H](NC(=O)[C@H](CCC(N)=O)NC(=O)[C@H](CCCNC(=N)N)NC(=O)[C@H](CO)NC(=O)CNC(=O)[C@H](CCC(=O)O)NC(=O)[C@H](CO)NC(=O)[C@@H](NC(=O)[C@H](CCC(=O)O)NC(=O)[C@H](CC(C)C)NC(C)=O)[C@@H](C)O)C(=O)N[C@@H](CC(C)C)C(=O)NCC(=O)N[C@@H](CCC(N)=O)C(=O)N[C@@H](CC(C)C)C(=O)N[C@@H](CCC(N)=O)C(=O)NCC(=O)N[C@@H](CSCC(N)=O)C(N)=O (Ac-LETSEGSRQILGQLQGC(Cam)-NH2) | > 50 µM |  | 37 µM |  |  |  | 25% |  | 24% |  |
| CC(=O)N[C@@H](CO)C(=O)N[C@@H](CCCCN)C(=O)N[C@@H](CCCCN)C(=O)N[C@@H](CCCCN)C(=O)N[C@@H](C)C(=O)N[C@@H](CCC(N)=O)C(=O)N[C@@H](CCC(N)=O)C(=O)N[C@@H](C)C(=O)N[C@@H](C)C(=O)N[C@@H](C)C(=O)N[C@@H](CC(=O)O)C(=O)N[C@H](C(=O)NCC(=O)N[C@@H](CC(N)=O)C(=O)N[C@@H](CC(N)=O)C(=O)NCC(=O)N[C@@H](CSCC(=O)N[C@@H](CCCNC(=N)N)C(=O)N[C@@H](CCCNC(=N)N)C(=O)N[C@@H](CCCNC(=N)N)C(=O)N[C@@H](CCCNC(=N)N)C(=O)N[C@@H](CCCNC(=N)N)C(=O)N[C@@H](CCCNC(=N)N)C(=O)N[C@@H](CCCNC(=N)N)C(=O)N[C@@H](CCCNC(=N)N)C(N)=O)C(N)=O)[C@@H](C)O | > 50 µM |  | 41 µM | 27 µM |  |  |  |  |  | 30% |
| CC[C@H](C)[C@H](NC(=O)[C@@H](NC(=O)[C@H](CC(N)=O)NC(=O)[C@H](Cc1ccc(O)cc1)NC(=O)[C@H](CC(C)C)NC(=O)[C@H](CO)NC(=O)[C@H](CCCNC(=N)N)NC(=O)[C@H](CC(C)C)NC(=O)[C@H](CCC(=O)O)NC(=O)[C@H](CCC(=O)O)NC(=O)[C@H](CO)NC(=O)CNC(C)=O)[C@@H](C)O)C(=O)N[C@@H](C)C(=O)N[C@H](C(=O)N[C@@H](CC(C)C)C(=O)NCC(=O)N[C@@H](CSCC(N)=O)C(N)=O)C(C)C | > 50 µM |  | > 50 µM |  | Insoluble |  |  |  |  |  |
